Consider nine compounds from patent US5326770A, “Monoamine oxidase-B (MAO-B) inhibitory 5-substituted 2,4-thiazolidinediones useful in treating memory disorders of mammals” (priority 1992, dated 1994).

The target in one assay is T1, MAO-A (Rattus norvegicus, UniProt P21396).
T1 construct: Both Forms of Monoamine Oxidase in the Rat Brain; from tissue
T1 sequence (P21396 1-526): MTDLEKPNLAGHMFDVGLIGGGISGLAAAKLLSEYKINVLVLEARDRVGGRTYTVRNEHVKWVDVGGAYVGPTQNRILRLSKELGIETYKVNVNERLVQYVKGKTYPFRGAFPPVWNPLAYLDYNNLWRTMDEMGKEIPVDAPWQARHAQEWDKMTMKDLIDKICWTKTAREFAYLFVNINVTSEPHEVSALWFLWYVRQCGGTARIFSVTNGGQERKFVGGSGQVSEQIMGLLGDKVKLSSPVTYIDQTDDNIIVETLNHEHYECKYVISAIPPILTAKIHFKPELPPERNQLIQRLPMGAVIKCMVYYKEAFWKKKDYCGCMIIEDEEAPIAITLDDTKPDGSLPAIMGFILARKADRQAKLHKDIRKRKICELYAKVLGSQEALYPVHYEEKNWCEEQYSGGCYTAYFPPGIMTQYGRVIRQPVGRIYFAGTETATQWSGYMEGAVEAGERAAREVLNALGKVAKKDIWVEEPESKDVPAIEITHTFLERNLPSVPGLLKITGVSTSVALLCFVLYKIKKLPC
Briefly: Monoamine oxidase-A (MAO-A) inhibition assay. To be noted: Table II. The assay is classed as biochemical.
The IC50 is the concentration that inhibits the measured activity by half. A low value points to higher potency. With `O=C1NC(=O)C(=Cc2ccc(OCc3cccc(Cl)c3)cc2)S1` [Example 8, 5-{4-[(3-Chlorophenyl)methoxy]phenylmethylene}-2,4-thiazolidinedione], the IC50 is > 100 µM.

Turning to `N#CCCCCN1C(=O)SC(=Cc2cccc(OCc3ccccc3)c2)C1=O` [Example 3], the concentration for half-maximal inhibition (IC50) was > 1000 µM.

The compound `N#CCN1C(=O)SC(=Cc2ccc(OCCc3ccccc3)cc2)C1=O` [Example 5, 2,4-Dioxo-5-[4-(2-phenylethoxy)phenylmethylene]-3-thiazolidineacetonitrile] registered an IC50 of 30 µM.

Consider `N#CCCCN1C(=O)SC(=Cc2cccc(OCc3ccccc3)c2)C1=O` [Example 2, 2,4-Dioxo-5-[3-(phenylmethoxy)-phenylmethylene]-4-thiazolidinebutanenitrile], for which the IC50 was > 5000 µM.

For `CCCCCCOc1ccc(CC2SC(=O)NC2=O)cc1` (stereo not shown) [Example 6, 5-[(4-Hexyloxyphenyl)methyl]-2,4-thiazolidinedione], the IC50 was 10 µM.

Compound `N#CCCCN1C(=O)SC(=Cc2ccc(OCc3cccc(Cl)c3)cc2)C1=O` [Example 9] came in with an IC50 of 30 µM.

`O=C1NC(=O)C(=Cc2ccc(OCCc3ccccc3)cc2)S1` [Example 4, 5-[4-(2-Phenylethoxy)phenylmethylene]-2,4-thiazolidinedione]: half-maximal inhibition (IC50) was put at 30 µM.

With `O=C1NC(=O)C(Cc2ccc(OCC34CC5CC(CC(C5)C3)C4)cc2)S1` (stereo not shown) [Example 7, 5-[4-(3-Adamantylmethoxy)phenylmethyl]-2,4-thiazolidinedione], the midpoint of inhibition, the IC50, lay at 30 µM.

`O=C1NC(=O)C(=Cc2cccc(OCc3ccccc3)c2)S1` [Example 1, 5-[3-(Phenylmethoxy)phenylmethyl-ene]-2,4-thiazolidinedione] came in with a half-maximal inhibitory concentration (IC50) of 100 µM.

Tested on in another assay: not listed separately
Nature of the assay: AMPT test (ED50). The assay is classed as in vivo. To be noted: Table II; method not described.
In general, ED50 refers to the dose at which the effect has come halfway, by size or by number of responders. In the case of `CCCCCCOc1ccc(CC2SC(=O)NC2=O)cc1` (stereo not shown) [Example 6, 5-[(4-Hexyloxyphenyl)methyl]-2,4-thiazolidinedione], the ED50 was found to be 6.71 mg/kg.

A further assay has as its target T2, MAO-B (Rattus norvegicus, UniProt P19643).
T2 construct: Both Forms of Monoamine Oxidase in the Rat Brain; from tissue
T2 sequence (P19643 1-520): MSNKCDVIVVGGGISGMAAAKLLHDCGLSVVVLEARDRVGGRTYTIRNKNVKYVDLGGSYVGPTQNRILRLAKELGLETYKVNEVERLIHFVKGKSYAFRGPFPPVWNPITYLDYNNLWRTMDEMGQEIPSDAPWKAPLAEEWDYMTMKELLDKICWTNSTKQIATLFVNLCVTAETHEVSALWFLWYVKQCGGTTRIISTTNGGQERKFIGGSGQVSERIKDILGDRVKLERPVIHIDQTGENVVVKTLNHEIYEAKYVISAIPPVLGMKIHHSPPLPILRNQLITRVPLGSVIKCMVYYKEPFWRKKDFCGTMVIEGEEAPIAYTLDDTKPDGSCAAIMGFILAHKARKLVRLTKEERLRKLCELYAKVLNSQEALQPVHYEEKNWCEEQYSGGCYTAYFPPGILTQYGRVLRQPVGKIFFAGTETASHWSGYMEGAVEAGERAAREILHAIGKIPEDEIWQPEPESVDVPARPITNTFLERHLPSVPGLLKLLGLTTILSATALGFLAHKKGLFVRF
Nature of the assay: Monoamine oxidase-B (MAO-B) inhibition assay. The assay is classed as biochemical. The note with it: Table II.
`O=C1NC(=O)C(=Cc2ccc(OCc3cccc(Cl)c3)cc2)S1` [Example 8, 5-{4-[(3-Chlorophenyl)methoxy]phenylmethylene}-2,4-thiazolidinedione]: the half-maximal inhibitory concentration (IC50) came to 30 µM.

Compound `N#CCCCCN1C(=O)SC(=Cc2cccc(OCc3ccccc3)c2)C1=O` [Example 3] yielded a half-inhibitory concentration (IC50) of 0.7 µM.

Regarding `N#CCN1C(=O)SC(=Cc2ccc(OCCc3ccccc3)cc2)C1=O` [Example 5, 2,4-Dioxo-5-[4-(2-phenylethoxy)phenylmethylene]-3-thiazolidineacetonitrile], half-maximal inhibition (IC50) was put at 2 µM.

`N#CCCCN1C(=O)SC(=Cc2cccc(OCc3ccccc3)c2)C1=O` [Example 2, 2,4-Dioxo-5-[3-(phenylmethoxy)-phenylmethylene]-4-thiazolidinebutanenitrile] had an IC50 of 0.1 µM.

On to `CCCCCCOc1ccc(CC2SC(=O)NC2=O)cc1` (stereo not shown) [Example 6, 5-[(4-Hexyloxyphenyl)methyl]-2,4-thiazolidinedione], for which inhibition was half-maximal at 0.1 µM (IC50).

Compound `N#CCCCN1C(=O)SC(=Cc2ccc(OCc3cccc(Cl)c3)cc2)C1=O` [Example 9] yielded an IC50 of 100 µM.

`O=C1NC(=O)C(=Cc2ccc(OCCc3ccccc3)cc2)S1` [Example 4, 5-[4-(2-Phenylethoxy)phenylmethylene]-2,4-thiazolidinedione] yielded a half-inhibitory concentration (IC50) of 0.1 µM.

For the compound `O=C1NC(=O)C(Cc2ccc(OCC34CC5CC(CC(C5)C3)C4)cc2)S1` (stereo not shown) [Example 7, 5-[4-(3-Adamantylmethoxy)phenylmethyl]-2,4-thiazolidinedione], the IC50 amounted to 0.1 µM.

`O=C1NC(=O)C(=Cc2cccc(OCc3ccccc3)c2)S1` [Example 1, 5-[3-(Phenylmethoxy)phenylmethyl-ene]-2,4-thiazolidinedione] had an IC50 of 100 µM.

Still in this assay, the particulars now being: ratio of MAO-A IC50 to MAO-B IC50.
For `O=C1NC(=O)C(=Cc2ccc(OCc3cccc(Cl)c3)cc2)S1` [Example 8, 5-{4-[(3-Chlorophenyl)methoxy]phenylmethylene}-2,4-thiazolidinedione], the “Ratio A/B” value is on record as > 3.

With `N#CCCCCN1C(=O)SC(=Cc2cccc(OCc3ccccc3)c2)C1=O` [Example 3], the “Ratio A/B” value was > 1428.

As for `N#CCN1C(=O)SC(=Cc2ccc(OCCc3ccccc3)cc2)C1=O` [Example 5, 2,4-Dioxo-5-[4-(2-phenylethoxy)phenylmethylene]-3-thiazolidineacetonitrile], the “Ratio A/B” value is 15.

Take `N#CCCCN1C(=O)SC(=Cc2cccc(OCc3ccccc3)c2)C1=O` [Example 2, 2,4-Dioxo-5-[3-(phenylmethoxy)-phenylmethylene]-4-thiazolidinebutanenitrile]: the “Ratio A/B” value is reported as > 50000.

On to `CCCCCCOc1ccc(CC2SC(=O)NC2=O)cc1` (stereo not shown) [Example 6, 5-[(4-Hexyloxyphenyl)methyl]-2,4-thiazolidinedione], for which the “Ratio A/B” value came to 100.

In the case of `N#CCCCN1C(=O)SC(=Cc2ccc(OCc3cccc(Cl)c3)cc2)C1=O` [Example 9], the “Ratio A/B” value is < 1.

For the compound `O=C1NC(=O)C(=Cc2ccc(OCCc3ccccc3)cc2)S1` [Example 4, 5-[4-(2-Phenylethoxy)phenylmethylene]-2,4-thiazolidinedione], the “Ratio A/B” value was > 300.

On to `O=C1NC(=O)C(Cc2ccc(OCC34CC5CC(CC(C5)C3)C4)cc2)S1` (stereo not shown) [Example 7, 5-[4-(3-Adamantylmethoxy)phenylmethyl]-2,4-thiazolidinedione], for which the “Ratio A/B” value turned out to be 300.

Consider `O=C1NC(=O)C(=Cc2cccc(OCc3ccccc3)c2)S1` [Example 1, 5-[3-(Phenylmethoxy)phenylmethyl-ene]-2,4-thiazolidinedione], for which the “Ratio A/B” value worked out at 1.
